# Assay results published in paper PMC12677653, “Inhibition of Tumor Lipogenesis and Growth by Peptide‐Based Targeting of SREBP Activation” (Advanced Science, 2025).
# Experiments:
# Format in all cases: in vivo, BALB/c athymic nude mice
# [1] = tested on: Insig1 pS207/Insig2 pS151, SREBP1, Ki67; assay: IHC analysis of mouse tumors derived from Huh7 cells; conditions: peptide given as LNP@Insig1/2 loop 1 peptide 10 mg/kg iv, lenvatinib mesylate 2 mg/kg oral
# Experimental: (§1) Representative micrographs are shown (scale bar: 20 µm). b,c) Cryosections of mouse tumor tissues were prepared for histological analysis. (b) Lipid accumulation was assessed by Oil Red O staining. Representative micrographs are shown (scale bar: 20 µm). (c) Apoptotic cells were detected by TUNEL assay. Representative micrographs are shown (scale bar: 20 µm). d,e) Quantitative analysis of (d) apoptotic areas (TUNEL‐positive regions) and (e) lipid droplet counts (Oil Red O‐positive particles) was performed. Data represent the mean ± SD (n = 4). Statistical significance was determined by one‐way analysis of variance (ANOVA). ** p < 0.01, **** p < 0.0001, ns, no significance.
# As described previously,^[ [39] ^] IHC staining was performed using the Vectastain ABC kit (Vector Laboratories) according to the manufacturer's instructions. Sections of paraffin‐embedded xenograft tumors were stained with antibodies against Ki67, SREBP1, Insig1 pS207/Insig2 pS151, and nonspecific IgG was used as a negative control. Paraffin‐embedded human liver tumor sections were stained with antibodies against Ki67, SREBP1, Insig1 pS207/Insig2 pS151, with nonspecific IgG as a negative control. The tissue sections were quantitatively scored according to the percentage of positive cells and staining intensity. […] The intensity of staining was rated on a scale of 0 to 3: 0, negative; 1, weak; 2, moderate; and 3, strong. The study then combined the proportion and intensity scores to obtain a total score (range, 0–8).
# [2] = tested on: lipid accumulation in tumor tissues; assay: Oil Red O staining of tumor tissues; conditions: cryosections of Huh7 tumors, n = 4; peptide given as LNP 10 mg/kg iv; lenvatinib mesylate 2 mg/kg oral
# Experimental: as §1
# Cryosections 6–8 µm in thickness were air‐dried and fixed with formaldehyde for 5–10 min. Then, the slides were placed in absolute propylene glycol for 2–5 min and stained with 0.5% Oil red O dye. After staining, the slides were rinsed, counterstained with Mayer's hematoxylin for 1 min, and mounted in glycerin.
# [3] = tested on: tumor cell apoptosis; assay: TUNEL assay of tumor tissues; conditions: cryosections of Huh7 tumors, n = 4; peptide given as LNP 10 mg/kg iv; lenvatinib mesylate 2 mg/kg oral
# Experimental: as §1
# Mouse tumor tissues were sectioned at 5 µm thickness. Apoptotic cells were counted using the colorimetric TUNEL System (Beyotime, C1091) according to the manufacturer's instructions. The total numbers of apoptotic cells were counted in six high‐power fields and presented as an average number of apoptotic cells per high‐power fields.
sequence,measurement,setting,value
RKKRRQRRRLYPCIDSHLGEPHKFKRE [Insig1/2 loop 1 peptide],Insig1 S207/Insig2 S151 phosphorylation in tumors,[1],reduced
same,Ki67 expression in tumors,[1],reduced
same,SREBP1 expression and nuclear accumulation in tumors,[1],reduced
same,lipid accumulation in tumor tissues (Oil Red O),[2],reduced lipid accumulation in tumor tissues
same,cell apoptosis in tumor tissues (TUNEL),[3],induced cell apoptosis in tumor tissues
